Data on ten compounds can be found in ChEMBL document CHEMBL1201862, “PubChem BioAssay data set” (2004).

Structures are written as SMILES.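 Five concentrations, 48 hours, 96-well plates. GI50 marks 50% less growth.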 The source made the active and inactive calls. Rule as the data show it: active = GI50 up to about 1.1 µM and inactive = higher.

Some test systems named below: U-251; MDA-N; SW-620; UO-31; CCRF-CEM; EKVX; HOP-62; SF-295; OVCAR-4; NCI-H226; A549; 786-0; NCI/ADR-RES; SR; NCI-H460; UACC-257; OVCAR-8; MDA-MB-435; COLO 205; Malme-3M.
Holding throughout (assay): NCI tumour cell line growth inhibition, 48 h

Consider `Cc1cc(C)c2c(O)c(S(=O)(=O)c3ccc(Cl)cc3)c(=O)oc2c1`, for which the GI50 with U-251 is 37.7 µM (inactive); with MDA-N it was 79.1 µM (inactive); in the experiment on SW-620, 68.7 µM (inactive); in the experiment with UO-31, 50.8 µM (inactive); in the experiment on CCRF-CEM, 42.5 µM (inactive); in the experiment with EKVX, 22.7 µM (inactive). For the same compound, the GI50 is 61.8 µM (inactive) in the experiment with HOP-62; 36.5 µM (inactive) in the experiment with SF-295; 41.7 µM (inactive) in the experiment on OVCAR-4; 24.3 µM (inactive) in the experiment on NCI-H226; 46.3 µM (inactive) in the experiment on A549; 78.2 µM (inactive) with 786-0. Besides, the GI50 with NCI/ADR-RES is 26.2 µM (inactive); with SR, 82.4 µM (inactive); with NCI-H460 it was 52.2 µM (inactive); with UACC-257 it was > 100 µM (inactive); in the experiment with OVCAR-8, 29.2 µM (inactive); with MDA-MB-435, 51.8 µM (inactive). For the same compound, the GI50 with COLO 205 is > 100 µM (inactive); with Malme-3M, 59.7 µM (inactive).

Turning to `CC(C)(C)OC(=O)N1CCc2c(n(C/C=C/c3ccccc3)[nH]c2=O)C1`, the GI50 in the experiment with U-251 is > 100 µM (inactive); in the experiment with MDA-N, > 100 µM (inactive); with SW-620, > 100 µM (inactive); in the experiment with UO-31 it was 61.2 µM (inactive); in the experiment with CCRF-CEM, 72.3 µM (inactive); with EKVX, > 83.8 µM (inactive). Besides, the GI50 was > 80.7 µM (inactive) with HOP-62; > 100 µM (inactive) in the experiment on SF-295; 97.1 µM (inactive) in the experiment on OVCAR-4; > 100 µM (inactive) with NCI-H226; > 100 µM (inactive) with A549; > 100 µM (inactive) with 786-0. The GI50 is 26.2 µM (inactive) with NCI/ADR-RES; 35.5 µM (inactive) in the experiment with SR; > 100 µM (inactive) in the experiment on NCI-H460; > 100 µM (inactive) in the experiment with UACC-257; > 100 µM (inactive) in the experiment with OVCAR-8; > 100 µM (inactive) in the experiment with MDA-MB-435. Further, the GI50 in the experiment on COLO 205 is > 70.6 µM (inactive); in the experiment on Malme-3M, > 75.2 µM (inactive).

For the compound `Cc1cn([C@@H]2C[C@@H]2CO)c(=O)[nH]c1=O`, the GI50 with U-251, in the experiment on MDA-N, in the experiment with SW-620, in the experiment with UO-31, with CCRF-CEM and with EKVX was > 100 µM (inactive) each time. The GI50 in the experiment on HOP-62, with OVCAR-4, in the experiment with NCI-H226, with A549, in the experiment on 786-0 and in the experiment on NCI/ADR-RES was > 100 µM (inactive) throughout. For the same compound, the GI50 in the experiment with SR, with NCI-H460, in the experiment on UACC-257, in the experiment with OVCAR-8, in the experiment on MDA-MB-435 and in the experiment with COLO 205 was > 100 µM (inactive) throughout. In addition, the GI50 in the experiment with Malme-3M was > 100 µM (inactive).

Take `COc1ccc(C2Oc3c(cccc3OC)C=C2[N+](=O)[O-])cc1OC` (stereo not given): the GI50 in the experiment on U-251 is 3.97 µM (inactive); with MDA-N, 5.19 µM (inactive); in the experiment with UO-31, 14.7 µM (inactive); in the experiment on CCRF-CEM, 1.58 µM (inactive); with EKVX it was 45.2 µM (inactive); in the experiment with HOP-62, 21.2 µM (inactive). For the same compound, the GI50 in the experiment with SF-295 was 20.6 µM (inactive); with OVCAR-4 it was 18.7 µM (inactive); in the experiment on NCI-H226, 18.6 µM (inactive); in the experiment on A549, 14.7 µM (inactive); in the experiment on 786-0, 3.74 µM (inactive); in the experiment on NCI/ADR-RES, 3.87 µM (inactive). Moreover, the GI50 was 2.59 µM (inactive) in the experiment on SR; 21.5 µM (inactive) with NCI-H460; 3.71 µM (inactive) with UACC-257; 8.93 µM (inactive) in the experiment with OVCAR-8; 2.16 µM (inactive) with MDA-MB-435; 13.7 µM (inactive) with COLO 205. Further, in the experiment with Malme-3M, the GI50 was 7.59 µM (inactive).

As for `C[N+](C)(C)CC1CCCC1=O` (stereo not given), the GI50 in the experiment on U-251 is 13.2 µM (inactive); in the experiment with MDA-N, 1.69 µM (inactive); in the experiment on SW-620, 0.383 µM (active); in the experiment with UO-31 it was 2.5 µM (inactive); in the experiment on CCRF-CEM it was 0.213 µM (active); in the experiment on EKVX it was 2.16 µM (inactive). The GI50 with HOP-62 is 29.8 µM (inactive); in the experiment on SF-295 it was 19.1 µM (inactive); in the experiment with OVCAR-4 it was 0.867 µM (active); in the experiment on NCI-H226 it was 17.2 µM (inactive); with A549 it was 19 µM (inactive); with 786-0, 2.34 µM (inactive). The GI50 was 1.94 µM (inactive) in the experiment with NCI/ADR-RES; 0.339 µM (active) with SR; 19.5 µM (inactive) with NCI-H460; 5.53 µM (inactive) in the experiment on UACC-257; 2.1 µM (inactive) with OVCAR-8; 1.71 µM (inactive) in the experiment on MDA-MB-435. For the same compound, the GI50 in the experiment on COLO 205 is 1.2 µM (inactive); in the experiment on Malme-3M, 0.789 µM (active).

For `O=C1/C(=C2/C(=O)N(c3ccccc3)c3ccccc32)Nc2ccccc21`, the GI50 with U-251 is 31.8 µM (inactive); in the experiment on MDA-N it was > 100 µM (inactive); in the experiment on SW-620 it was 63.1 µM (inactive); with UO-31 it was 43.7 µM (inactive); in the experiment on CCRF-CEM, 92.3 µM (inactive); in the experiment on EKVX, 24.2 µM (inactive). Moreover, the GI50 was 31.8 µM (inactive) in the experiment with HOP-62; 48.4 µM (inactive) in the experiment with SF-295; 25.5 µM (inactive) in the experiment on OVCAR-4; 27.9 µM (inactive) in the experiment on NCI-H226; 37.2 µM (inactive) in the experiment on A549; 15 µM (inactive) in the experiment with 786-0. Also, the GI50 was > 100 µM (inactive) with NCI/ADR-RES; 61.2 µM (inactive) in the experiment with SR; 46.2 µM (inactive) in the experiment on NCI-H460; 37.4 µM (inactive) in the experiment on UACC-257; 47.8 µM (inactive) with OVCAR-8; 66.8 µM (inactive) with MDA-MB-435. Further, the GI50 is 24.7 µM (inactive) in the experiment with COLO 205 and 73.1 µM (inactive) with Malme-3M.

On to `CC(O)C1(CNc2cc(Cl)nc(N)n2)CCC1` (stereo not given), for which the GI50 with U-251 is > 100 µM (inactive); in the experiment with MDA-N, > 100 µM (inactive); with SW-620 it was > 100 µM (inactive); in the experiment with UO-31 it was > 100 µM (inactive); with CCRF-CEM, > 100 µM (inactive); in the experiment on EKVX, 59.3 µM (inactive). In addition, the GI50 in the experiment on HOP-62, in the experiment on SF-295, in the experiment with OVCAR-4, in the experiment on NCI-H226, in the experiment on A549 and in the experiment with 786-0 was > 100 µM (inactive) each time. In addition, the GI50 in the experiment on NCI/ADR-RES was > 100 µM (inactive); in the experiment with SR, > 100 µM (inactive); in the experiment on NCI-H460, > 100 µM (inactive); with UACC-257, 37.8 µM (inactive); in the experiment with OVCAR-8 it was > 100 µM (inactive); in the experiment with MDA-MB-435, > 100 µM (inactive). Moreover, the GI50 in the experiment with Malme-3M was > 100 µM (inactive).

Regarding `Cc1c(C#N)c2nnn(-c3ccc([N+](=O)[O-])cc3)c(=O)n2c1-c1ccccc1`, the GI50 was 4.26 µM (inactive) in the experiment with U-251; 10.2 µM (inactive) in the experiment with MDA-N; 10.2 µM (inactive) with SW-620; 11.2 µM (inactive) with UO-31; 5.98 µM (inactive) with CCRF-CEM; 8.89 µM (inactive) with EKVX. Besides, the GI50 with HOP-62 is 7.29 µM (inactive); in the experiment with SF-295, 3.57 µM (inactive); in the experiment on OVCAR-4, 8.04 µM (inactive); in the experiment on NCI-H226, 12.6 µM (inactive); in the experiment on A549, 10.1 µM (inactive); in the experiment on 786-0, 12.2 µM (inactive). Further, the GI50 in the experiment with NCI/ADR-RES was 4.86 µM (inactive); in the experiment with SR, 4.62 µM (inactive); in the experiment with NCI-H460, 5.86 µM (inactive); in the experiment with UACC-257 it was 16.9 µM (inactive); in the experiment with OVCAR-8 it was 10.7 µM (inactive); in the experiment with MDA-MB-435 it was 13 µM (inactive). The GI50 in the experiment on COLO 205 is 10.4 µM (inactive); in the experiment with Malme-3M, 14.7 µM (inactive).

As for `O=S(=O)(/N=c1/[nH]c2ccccc2n1S(=O)(=O)c1ccccc1)c1ccccc1`, the GI50 with U-251 is 22.1 µM (inactive); in the experiment with MDA-N it was 56.2 µM (inactive); with SW-620 it was 30.4 µM (inactive); in the experiment on UO-31, 36.3 µM (inactive); with CCRF-CEM, 31.3 µM (inactive); in the experiment with EKVX it was 65.6 µM (inactive). Moreover, the GI50 was 56.5 µM (inactive) in the experiment on HOP-62; 41.1 µM (inactive) with SF-295; 46.6 µM (inactive) in the experiment on OVCAR-4; 56.2 µM (inactive) in the experiment on NCI-H226; 42.4 µM (inactive) with A549; 67 µM (inactive) in the experiment with 786-0. Besides, the GI50 in the experiment with NCI/ADR-RES is 44.9 µM (inactive); with SR, > 10 µM (inactive); with UACC-257 it was 45 µM (inactive); in the experiment on OVCAR-8 it was 55 µM (inactive); with MDA-MB-435 it was 36.8 µM (inactive); in the experiment on COLO 205, 53.5 µM (inactive). For the same compound, the GI50 with Malme-3M was 37.2 µM (inactive).

In the case of `COC(=O)c1ccc(/C=N/c2ccc(S(N)(=O)=O)cc2)cc1`, the GI50 in the experiment with U-251 was 67 µM (inactive); in the experiment on MDA-N, 59.7 µM (inactive); in the experiment on UO-31, 74.5 µM (inactive); with CCRF-CEM, 30.8 µM (inactive); with EKVX, > 100 µM (inactive); with HOP-62 it was > 100 µM (inactive). Further, the GI50 in the experiment on SF-295 was > 100 µM (inactive); in the experiment with OVCAR-4 it was 97.9 µM (inactive); with NCI-H226 it was > 100 µM (inactive); with A549 it was > 100 µM (inactive); in the experiment with 786-0, 57.1 µM (inactive); with NCI/ADR-RES, 58.5 µM (inactive). The GI50 in the experiment on SR was 43 µM (inactive); in the experiment on NCI-H460, > 100 µM (inactive); with UACC-257, 14.2 µM (inactive); with OVCAR-8, 89.1 µM (inactive); in the experiment on MDA-MB-435 it was 35.4 µM (inactive); with COLO 205 it was > 100 µM (inactive). Further, the GI50 in the experiment with Malme-3M was 85.5 µM (inactive).
